Where a name gives a salt, the structure may show the parent alone.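 Exposure lasted 48 hours, with cells grown in 96-well plates and compounds tested at five concentrations. Here, GI50 denotes the concentration required for 50% inhibition of growth.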 Calls of active or inactive are those of the source. Rule as the data show it: active = GI50 up to about 1.1 µM and inactive = higher.

Holding throughout (assay): NCI anticancer screen, dose series, 48 h
The test system of test [1] is DU-145.
Test [2] concerns MDA-MB-231.
Test [3] relates to Hs-578T.

For `CC(C)=CCc1c(O)c(CC=C(C)C)c2oc3c(c(=O)c2c1O)C(C=C(C)C)Oc1cc(O)ccc1-3` (centres undefined), the results for the GI50 in test [1], in test [2] and in test [3] were 10.4 µM (inactive), 12.4 µM (inactive) and 12 µM (inactive), respectively.
With `C[N+]12C=CC=C1C(N1CCCC1)c1scc(-c3ccccc3)c12` (centres undefined), the GI50 was 52.2 µM (inactive) in test [1], 37.8 µM (inactive) in test [2] and 9.84 µM (inactive) in test [3].
Consider `O=C(c1ccccc1)N1CCC(Nc2nccs2)O1` (centres undefined), for which the GI50 in test [1], in test [2] and in test [3] was > 10 µM (inactive) each time.
As to `CCN(CC)C1=Nc2ccccc2-n2c(C)cnc2C1`, the GI50 in test [1], in test [2] and in test [3] was > 100 µM (inactive) throughout.
With `O=C1c2ccc3c4ccc5c6c(ccc(c7ccc(c2c37)C(=O)N1CCN1CCCCC1)c64)C(=O)N(CCN1CCCCC1)C5=O`, the GI50 in test [1] and in test [3] was > 100 µM (inactive) each time.
Turning to `Cc1ccc(O)c(Cc2nc3ccccc3nc2-c2cccc(Cl)c2)c1`, the GI50 in test [1] is > 100 µM (inactive); in test [2], 46.3 µM (inactive); in test [3], 30.6 µM (inactive).
Regarding `COc1cc(-c2oc3c(OC)c(O)c(OC)c(O)c3c(=O)c2OC)cc(OC)c1OC`, the GI50 was > 100 µM (inactive) in test [1], 73.6 µM (inactive) in test [2] and 14.3 µM (inactive) in test [3].
Taken in the same sequence, the figures for `Oc1ccc(/N=N/c2ccc(Cl)cc2)cc1` were 16.4 µM (inactive), 10.8 µM (inactive) and 28.8 µM (inactive).
On to `COC(=O)c1sc2nc(Nc3ccccc3)/c(=N\c3ccccc3)sc2c1C`, for which the GI50 is > 100 µM (inactive) in test [1], > 100 µM (inactive) in test [2] and 27.7 µM (inactive) in test [3].
Consider `COc1ccc(/N=C(/C[S+]([O-])c2ccc(C)cc2)C(F)(F)F)cc1` (centres undefined), for which the GI50 in test [1] and in test [2] was > 100 µM (inactive) in each case.
As to `CC(=O)O[C@H]1[C@@H](OC2CCCC2(c2ccccc2)c2ccccc2)O[N+]([O-])=C[C@@]12COCc1cc3c(cc12)OCO3` (some centres undefined), the GI50 in test [1] was 6.32 µM (inactive); in test [2], 6.12 µM (inactive); in test [3] it was 2.65 µM (inactive).
Taken in the same sequence, the figures for `CC(=O)OCC12C(OC(C)=O)C[C@@H](C)C3(CC(c4ccoc4)OC3=O)C1CCC(OC(C)=O)C21CO1` (some centres undefined) were > 100 µM (inactive), > 100 µM (inactive) and > 100 µM (inactive).
For the compound `CC(C)(C)OC(=O)NCCCCCCC(=O)Cc1ccccc1`, the GI50 in test [1] and in test [2] was > 100 µM (inactive) in each case.
Turning to `CCc1ccc2c(c1)N(CC(C)CN(C)C)c1ccccc1S2` (centres undefined) [ETYMEMAZINE HYDROCHLORIDE], the values for the GI50 in test [1], in test [2] and in test [3] were 7.91 µM (inactive), 4.89 µM (inactive) and 6.01 µM (inactive), respectively.
The corresponding values for `N#Cc1c(-c2ccc(Cl)cc2)cc(-c2ccc(Nc3ccnc4cc(Cl)ccc34)cc2)[nH]c1=O` are 99.3 µM (inactive), 34.4 µM (inactive) and 16.5 µM (inactive).
Taken in the same sequence, the figures for `COC(=O)C1=C(C)NC2(C)OC(C)(O)C(C(C)=O)C12C(C)=O` (centres undefined) were > 100 µM (inactive), 20.7 µM (inactive) and 25.4 µM (inactive).
Turning to `CC1(C)C=Cc2c(cc(O)c3c(=O)c4cc(Cl)ccc4[nH]c23)O1`, the results for the GI50 in test [2] and in test [3] were 3.33 µM (inactive) and 0.161 µM (active), respectively.
For the compound `COC(=O)CN1C(=O)C2(C(=O)OC)OC1(c1ccc([N+](=O)[O-])cc1)C1C(=O)N(c3ccccc3)C(=O)C12` (centres undefined), the GI50 in test [1], in test [2] and in test [3] was > 100 µM (inactive) in each case.
Turning to `CCN1CCC(O)(c2ccc(Oc3ccc(F)cc3)cc2)C(C(=O)c2ccc(Oc3ccc(F)cc3)cc2)C1` (centres undefined), the GI50 in test [1] was 12.2 µM (inactive); in test [2], 13.2 µM (inactive); in test [3], 17.2 µM (inactive).
The corresponding values for `CC(=O)OCC(OC(C)=O)C(OC(C)=O)C(OC(C)=O)C(/C=N\Nc1nc2ccccc2c(=O)[nH]1)=N/Nc1nc2ccccc2c(=O)[nH]1` (centres undefined) are > 100 µM (inactive), > 100 µM (inactive) and > 100 µM (inactive).
The corresponding values for `CN1CCN(c2ncc3c(n2)sc2c(=O)n(-c4ccccc4)cnc23)CC1` are > 100 µM (inactive), > 100 µM (inactive) and > 100 µM (inactive).
For `O=C1/C(=C/c2ccc(Cl)cc2)NC(=S)N1CN1CCCCC1`, the results for the GI50 in test [1], in test [2] and in test [3] were 45.8 µM (inactive), 49.9 µM (inactive) and 21.5 µM (inactive), respectively.
The corresponding values for `C=C(Cl)C(Cl)(CBr)CCC(Cl)C(C)(C)Cl` (centres undefined) are 1.35 µM (inactive), 2.16 µM (inactive) and 0.0237 µM (active).
Taken in the same sequence, the figures for `O=C(N/N=C\c1ccc(Cl)cc1)Nc1ccc2ccccc2c1` were > 100 µM (inactive), 41.9 µM (inactive) and 26.9 µM (inactive).
Taken in the same sequence, the figures for `N=C(N)NCCCC(NC(=O)OCCCCn1ccc(N)nc1=O)C(=O)O` (centres undefined) were > 100 µM (inactive), > 100 µM (inactive) and > 100 µM (inactive).
For the compound `CC1C(c2ccccc2)OP(=O)(OC(C#N)c2ccccc2)N1C` (centres undefined), the GI50 in test [1], in test [2] and in test [3] was > 100 µM (inactive) in each case.
Regarding `CCOC(=O)C(CC#Cc1ccc(C#CCC(NC(C)=O)C(=O)OCC)cc1)NC(C)=O` (centres undefined), the GI50 in test [1], in test [2] and in test [3] was > 100 µM (inactive) throughout.
Consider `CN1[C@@H]2CCCC[C@H]2N(C)P1(=O)C(O)/C=C/c1ccccc1` (some centres undefined), for which the GI50 in test [1], in test [2] and in test [3] was > 100 µM (inactive) in each case.
As for `C=CCN1CCN([C@H](c2ccc(C(=O)N(CC)CC)cc2)c2cccc(OC)c2)CC1`, the GI50 in test [1], in test [2] and in test [3] was > 25 µM (inactive) in each case.
`Cc1cccc2nc3cccc(C(=O)NCCC[N+](C)(CCCNC(=O)c4cccc5nc6cccc(C)c6nc45)Cc4ccc([N+](=O)[O-])n4C)c3nc12`: the GI50 in test [1] was 1.45 µM (inactive); in test [2], 17.5 µM (inactive); in test [3] it was 18.5 µM (inactive).
The corresponding values for `CC(=O)OC1COC(n2nc(/C=C/c3ccc(Cl)cc3)c(=O)n(/N=C/c3ccccc3)c2=S)C(OC(C)=O)C1OC(C)=O` (centres undefined) are > 100 µM (inactive), > 100 µM (inactive) and > 100 µM (inactive).
The corresponding values for `CCN(CC)CCCNc1ccc([N+](=O)[O-])c2nc3ccccc3c(N)c12` are 1.05 µM (active), 0.442 µM (active) and 0.257 µM (active).
Regarding `CCOP1(=O)C=C(Sc2ccc([N+](=O)[O-])cc2[N+](=O)[O-])C(C)(C)O1` (centres undefined), the GI50 in test [1] is 13.4 µM (inactive); in test [3], 26.7 µM (inactive).
In the case of `CC(=O)Oc1ccccc1C(=O)O` [ASPIRIN], in test [1], the GI50 was > 100 µM (inactive).
Regarding `O=C1CNC(=O)/C(=C/c2c[nH]c3ccccc23)N1`, the GI50 in test [1] and in test [3] was > 100 µM (inactive) each time.
For `CC1=NN(c2nc(N)nc(CSc3nc4n(c(=S)n3)CCN4)n2)C(C)(C)C1`, the GI50 is 29.6 µM (inactive) in test [2] and 15.6 µM (inactive) in test [3].

The values are drawn from ChEMBL document CHEMBL1201862, “PubChem BioAssay data set” (2004).
